This note sets out measurements from patent publication US20250188075A1, “SUBSTITUTED HETEROCYCLIC CSNK1 INHIBITORS” (The Broad Institute, Inc., priority 2022, published 2025).

For experiment [1], the target named is human Ether-a-go-go-Related Gene (hERG) potassium channel (Homo sapiens (Human), UniProt Q12809). Kind of experiment: hERG inhibition assay, automated voltage clamp. The class given is cell-based. Particulars: HEK293 cells stably expressing hERG alpha subunit. The procedure: Following harvest, cells were transferred to the cell reservoir of a 384 channel automated patch clamp device and stored there at 20° C. until usage.
Sequence of human Ether-a-go-go-Related Gene (hERG) potassium channel (Q12809 whole entry): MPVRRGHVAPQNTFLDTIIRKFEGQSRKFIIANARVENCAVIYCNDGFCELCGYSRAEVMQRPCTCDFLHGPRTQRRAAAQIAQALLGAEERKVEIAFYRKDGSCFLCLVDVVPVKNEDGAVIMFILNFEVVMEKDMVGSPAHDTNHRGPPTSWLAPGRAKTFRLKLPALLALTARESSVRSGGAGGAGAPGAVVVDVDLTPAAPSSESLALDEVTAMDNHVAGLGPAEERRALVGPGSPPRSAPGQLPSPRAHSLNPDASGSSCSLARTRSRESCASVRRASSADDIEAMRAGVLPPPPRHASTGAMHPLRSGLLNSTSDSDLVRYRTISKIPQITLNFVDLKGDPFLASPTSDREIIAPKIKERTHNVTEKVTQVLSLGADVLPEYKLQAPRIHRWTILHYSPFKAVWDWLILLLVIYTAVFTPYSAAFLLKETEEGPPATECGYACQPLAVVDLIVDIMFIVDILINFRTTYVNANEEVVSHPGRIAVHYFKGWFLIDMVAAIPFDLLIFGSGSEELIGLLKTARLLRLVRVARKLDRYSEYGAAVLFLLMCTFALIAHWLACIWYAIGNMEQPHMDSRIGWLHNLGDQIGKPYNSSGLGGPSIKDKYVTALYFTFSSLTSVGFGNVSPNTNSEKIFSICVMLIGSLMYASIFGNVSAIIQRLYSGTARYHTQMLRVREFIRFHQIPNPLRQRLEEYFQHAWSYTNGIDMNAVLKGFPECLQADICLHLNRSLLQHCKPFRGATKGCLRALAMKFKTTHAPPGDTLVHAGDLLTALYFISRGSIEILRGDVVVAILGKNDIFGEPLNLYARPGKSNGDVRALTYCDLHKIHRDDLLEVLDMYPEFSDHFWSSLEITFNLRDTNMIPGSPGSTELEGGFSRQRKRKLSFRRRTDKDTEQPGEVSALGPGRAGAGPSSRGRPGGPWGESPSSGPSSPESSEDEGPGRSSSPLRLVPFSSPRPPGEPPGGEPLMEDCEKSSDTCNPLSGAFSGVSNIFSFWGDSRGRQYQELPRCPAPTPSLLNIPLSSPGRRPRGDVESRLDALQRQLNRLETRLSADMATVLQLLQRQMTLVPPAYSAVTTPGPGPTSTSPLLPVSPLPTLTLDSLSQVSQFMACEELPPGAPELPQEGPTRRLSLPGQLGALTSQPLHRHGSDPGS
Upon start of the automated voltage clamp procedure, hERG cells were transferred to a 384 well patch clamp chip (pipette resistance of ˜[…] (2) prefilled with external solution (containing in mM: 143 NaCl, 4 KCl, 2 CaCl2), 1 MgCl2, 5 glucose, 10 HEPES; pH 7.4 (NaOH)). Underpressure was applied underneath the glass bottom of the patch clamp chip to position the hERG cells on the recording sites in the glass bottom of the chip. Following successful cell catch, underpressure was stopped and a seal enhancing solution (containing in mM: 78 NaCl, 60 NMDG, 4 KCl, 10 CaCl2), 1 MgCl2, 5 glucose, 10 HEPES; pH 7.4 (HCl)) was added to the hERG cells to facilitate the formation of stable seals between the membranes of the hERG cells and the glass next to the recording sites. Then, hERG cells were washed several times with wash solution (containing in mM: 87 NaCl, 60 NMDG, 4 KCl, 2 CaCl2), 1 MgCl2, 5 glucose, 10 HEPES; pH 7.4 (HCl)) to remove excess seal enhancing solution. In the meantime, the membrane parts of the hERG cells covering the recording sites were exposed to internal solution (containing in mM: 10 NaCl, 123 KF, 10 EGTA, 10 HEPES; pH 7.2 (KOH)) supplemented with 5-20 μM Escin, and the perforated patch configuration was established. Next, the holding potential was stepwise adjusted to −80 mV, capacitance was compensated, and a series of defined voltage commands was initiated to trigger the hERG current response from the hERG cells (−80 mV for 200 ms, +20 mV for 1000 ms, −40 mV for 500 ms; repeated at a frequency of 0.1 Hz). To determine whether the test item inhibits hERG, different solutions were sequentially applied to the hERG cells: First, a negative control (i.e. wash solution supplemented with 0.3% DMSO and 0.01% HSA) was applied for at least 3 min to investigate the basic electrophysiological properties of the hERG cells as well as define their standard current response. Next, a solution containing the test item at a final concentration of (0.1, 1, or 10) μM was applied for 10 min to measure eventual inhibitory effects of the test item on the hERG current (—the test item solution was produced from a 10 mM DMSO stock by using an automated pipetting device and sequential dilution). Finally, a positive control (i.e. wash solution supplemented with 0.3% DMSO, 0.01% HSA, and 10 μM quinidine) was added to the cells for ˜3 min to block the hERG current and, thereby, define the maximum inhibition. For data analysis, experimental results were processed using the automated patch clamp device-specific software as well as a custom-made software, and TIBCO Spotfire. For each successful recording, hERG tail current amplitudes were averaged from three consecutive current responses at the end of the negative control phase, test item phase, and positive control phase, respectively. Resulting mean hERG tail current amplitudes were normalized to the mean hERG tail current amplitude at the end of the negative control phase with nominal 0% inhibition as well as the hERG tail current amplitude at the end of the positive control phase with nominal 100% inhibition. Then, the effect of the test item was calculated as a percentage inhibition value at the test item concentration applied. Finally, percentage inhibition values from all successful recordings at a particular test item concentration were averaged and combined to construct a standard sigmoidal dose response curve, determine the half maximal inhibitory concentration (IC50) of the test item as well as extrapolate its IC20.
In general terms: The hERG channel carries a current that helps repolarise heart muscle cells.

Experiment [2] concerns total-p53 in MCF-7 cells. In words: HTRF total-p53 in MCF-7 cells. The class given is cell-based. As to conditions: Homo sapiens, MCF7, 2 h incubation, median, read-out: HTRF total-p53 MCF-7, IC50 - [mol/l] (median). The procedure: Day 1: MCF-7 cells were seeded (10,000 cells in 12 μl/well) in a 384-well-Small Volume-plate (Greiner Bio One #784075) in culture medium (RPMI 1640; (Biochrom; #F 1275; without PhenolRed)+FCS (final: 10%); (Biochrom; #S 0415)+Insulin (bovine); (final: 10 μg/mL, Biochrom; #K 3510)+L-Alanyl-L-Glutamine; (final: 2 mM, Biochrom; #K 0302)+Natriumpyruvat; (final: 1 mM, Biochrom; #L 0473)+Non Essentiell Amino Acids; (final: 1×, Biochrom; #K 0293)). The cells were then treated with different compounds or DMSO (added with the HP Dispenser) and incubated for 2 h at 37° C. Following incubation, the cells were lysed in 4 μl of lysis buffer for 1 h shaking at RT. Finally, 4 μl of antibody solution was added and the samples are incubated overnight at RT, shaking.
Total-p53 was detected in a sandwich assay format using 2 different specific antibodies, one labeled with Eu3+-Cryptate (donor) and the second with d2 (acceptor). Kit: HTRF total p53 detection assay (Cisbio Cat: 64T53PEG).
Day 2: the plate was read on PHERAstar FS (BMG Labtech settings; optic module: HTRF; integration start: 60 us; integration time: 400 μs; flash lamp). IC50 values were calculated using the DRC application in ShiNy Analysis Platform-SNAP.”
For orientation: TR-FRET usually uses a lanthanide donor and a delayed reading to cut background.

For `Cc1nc(CC(=O)Nc2cc(-c3[nH]c4cccnc4c3-c3ccccn3)ccn2)cs1` [Example 3, 2-(2-methylthiazol-4-yl)-N-[4-[3-(2-pyridyl)-^1H-pyrrolo[3,2-b]pyridin-2-yl]-2-pyridyl]acetamide], the IC50 in experiment [1] was determined as 5.98 µM; in experiment [2] it was 184 nM.

Consider `O=C(Cc1cnco1)Nc1cc(-c2[nH]c3cccnc3c2-c2ccccn2)ccn1` [Example 4], for which the IC50 was more than 10 µM in experiment [1] and 137 nM in experiment [2].

Consider `O=C(Cc1cnc2ccccc2n1)Nc1cc(-c2[nH]c3cccnc3c2-c2ccccn2)ccn1` [Example 6, N-[4-[3-(2-pyridyl)-^1H-pyrrolo[3,2-b]pyridin-2-yl]-2-pyridyl]-2-quinoxalin-2-yl-acetamide], for which the IC50 worked out at 5.35 µM in experiment [1] and 41 nM in experiment [2].

In the case of `O=C(Cc1cc2ccccn2n1)Nc1cc(-c2[nH]c3cccnc3c2-c2ccccn2)ccn1` [Example 15, 2-pyrazolo[1,5-a]pyridin-2-yl-N-[4-[3-(2-pyridyl)-^1H-pyrrolo[3,2-b]pyridin-2-yl]-2-pyridyl]acetamide], the IC50 stood at 1.45 µM in experiment [1] and 69.3 nM in experiment [2].

On to `Cc1nc(C)c(CC(=O)Nc2cc(-c3[nH]c4cccnc4c3-c3ccccn3)ccn2)s1` [Example 18, 2-(2,4-dimethylthiazol-5-yl)-N-[4-[3-(2-pyridyl)-^1H-pyrrolo[3,2-b]pyridin-2-yl]-2-pyridyl]acetamide], for which the IC50 in experiment [1] worked out at 2.05 µM; in experiment [2], 56.6 nM.

Turning to `Cn1nc(CC(=O)Nc2cc(-c3[nH]c4cccnc4c3-c3ccccn3)ccn2)cc1C(F)(F)F` [Example 21, 2-[1-methyl-5-(trifluoromethyl)pyrazol-3-yl]-N-[4-[3-(2-pyridyl)-^1H-pyrrolo[3,2-b]pyridin-2-yl]-2-pyridyl]acetamide], the figures for the IC50 in experiment [1] and in experiment [2] were 0.81 µM and 96.9 nM, respectively.

`CC(C)n1ccc(CC(=O)Nc2cc(-c3[nH]c4cccnc4c3-c3ccccn3)ccn2)n1` [Example 28, 2-(1-isopropylpyrazol-3-yl)-N-[4-[3-(2-pyridyl)-^1H-pyrrolo[3,2-b]pyridin-2-yl]-2-pyridyl]acetamide]: the IC50 in experiment [1] amounted to 8.69 µM; in experiment [2], 129 nM.
